Laboratory results from patent US20070128217A1 (priority 2003, published 2007).

Tests used:
[1] = tested on: control sera (pooled serum of ten healthy LUMC hospital workers; commercial negative donor pooled serum from the Dutch bloodbank); type: binding, human; design: Binding of Control serum LUMC to linear peptides / Binding of Control serum Blood-bank to linear peptides / Binding of Control serum LUMC to looped peptides / Binding of Control Serum Blood-Bank to Looped peptides / Binding of Control serum LUMC to linear peptides of the protein M of SARS-CoV Urbani / Binding of Control serum Blood-bank to linear peptides of the protein M of SARS-CoV Urbani / Binding of Control serum LUMC to looped peptides of the protein M of SARS-CoV Urbani / Binding of Control Serum Blood-Bank to Looped peptides of the protein M of SARS-CoV Urbani: unit not given here
[2] = tested on: antibodies in sera from SARS patients (sera 1a, 1b, 2, 6, 37, 62, London, SARS-yellow, SARS-green); type: binding, human; design: Binding of serum 6 to linear peptides of protein X1 of SARS-CoV Urbani / Binding of serum 37 to linear peptides of protein X1 of SARS-CoV Urbani / Binding of serum 6 to looped/cyclic peptide (PEPSCAN-ELISA) / Binding of serum 37 to looped/cyclic peptide (PEPSCAN-ELISA) / Binding of serum 37 to looped/cyclic peptides of protein X1 of SARS-CoV Urbani / Binding of serum 6 to linear peptides of protein X2 / Binding of serum 37 to linear peptides of protein X2 / Binding of serum 37 to looped/cyclic peptides of protein X2 of SARS-CoV Urbani / Binding of serum 6 to linear peptides of protein M of SARS-CoV Urbani / Binding of serum 37 to linear peptides of protein M of SARS-CoV Urbani / Binding of serum 6 to looped/cyclic peptides of protein M of SARS-CoV Urbani / Binding of serum 37 to looped/cyclic peptides of protein M of SARS-CoV Urbani / Binding of serum 6 to linear peptides of protein X3 of SARS-CoV Urbani / Binding of serum 37 to linear peptides of protein X3 of SARS-CoV Urbani / Binding of serum 37 to looped/cyclic peptides of protein X3 of SARS-CoV Urbani / Binding of serum 6 to linear peptides of protein X4 of SARS-CoV Urbani / Binding of serum 37 to linear peptides of protein X4 of SARS-CoV Urbani / Binding of serum 37 to looped/cyclic peptides of protein X4 of SARS-CoV Urbani / Binding of serum 6 to linear peptides of protein X5 of SARS-CoV Urbani / Binding of serum 37 to linear peptides of protein X5 of SARS-CoV Urbani / Binding of serum 37 to looped/cyclic peptides of protein X5 of SARS-CoV Urbani / Binding of serum 6 to linear peptides of protein N of SARS-CoV Urbani / Binding of serum 37 to linear peptides of protein N of SARS-CoV Urbani / Binding of serum 6 to linear peptide (PEPSCAN-ELISA) / Binding of serum 1a to looped/cyclic peptides of protein N of SARS-CoV Urbani / Binding of serum 1b to looped/cyclic peptides of protein N of SARS-CoV Urbani / Binding of serum 2 to looped/cyclic peptides of protein N of SARS-CoV Urbani / Binding of serum 6 to looped/cyclic peptides of protein N of SARS-CoV Urbani / Binding of serum 37 to looped/cyclic peptides of protein N of SARS-CoV Urbani / Binding of serum 62 to looped/cyclic peptides of protein N of SARS-CoV Urbani / Binding of serum London to looped/cyclic peptides of protein N of SARS-CoV Urbani / Binding of serum SARS-green to looped/cyclic peptides of protein N of SARS-CoV Urbani: unit not given here
[3] = tested on: rabbit serum obtained by immunizing a rabbit with the SARS-CoV strain Frankfurt 1; type: binding; design: Binding of a rabbit serum to linear peptides / Binding of a rabbit serum to looped peptides / Rabbit serum linear peptides / Rabbit serum looped peptides / Binding of a rabbit serum to linear peptides of protein N of SARS-CoV Urbani (Rabbit serum linear peptides) / Binding of a rabbit serum to looped/cyclic peptides of protein N of SARS-CoV Urbani (Rabbit serum looped peptides): unit not given here

Sequence: LSYFVASFRLFARTR
- Binding of Control Serum Blood-Bank to Looped peptides of the protein M of SARS-CoV Urbani [1]: 0.8
- Binding of Control serum Blood-bank to linear peptides of the protein M of SARS-CoV Urbani [1]: 0.6
- Binding of Control serum LUMC to linear peptides of the protein M of SARS-CoV Urbani [1]: 0.3
- Binding of Control serum LUMC to looped peptides of the protein M of SARS-CoV Urbani [1]: 1.0
- Binding of serum 1a to linear peptides of protein M of SARS-CoV Urbani [2]: 0.7
- Binding of serum 1b to linear peptides of protein M of SARS-CoV Urbani [2]: 0.4
- Binding of serum 2 to linear peptides of protein M of SARS-CoV Urbani [2]: 0.4
- Binding of serum 6 to linear peptides of protein M of SARS-CoV Urbani [2]: 0.4
- Binding of serum 37 to linear peptides of protein M of SARS-CoV Urbani [2]: 0.6
- Binding of serum 62 to linear peptides of protein M of SARS-CoV Urbani [2]: 0.7
- Binding of serum London to linear peptides of protein M of SARS-CoV Urbani [2]: 0.3
- Binding of serum SARS-green to linear peptides of protein M of SARS-CoV Urbani [2]: 0.2
- Binding of serum SARS-yellow to linear peptides of protein M of SARS-CoV Urbani [2]: 0.1
- Recognition of the peptide by sera of SARS-CoV infected individuals, and form (linear, looped/cyclic) in which it is recognized [2]: recognized in looped/cyclic form
- Rabbit serum linear peptides [3]: 0.4
- Rabbit serum looped peptides [3]: 0.6

Sequence: LTCTSTHFAFACADG
- Binding of Control Serum Blood-Bank to Looped peptides [1]: 0.7
- Binding of Control serum Blood-bank to linear peptides [1]: 0.8
- Binding of Control serum LUMC to linear peptides [1]: 0.8
- Binding of Control serum LUMC to looped peptides [1]: 0.6
- Binding of serum 1a to linear peptides of protein X4 of SARS-CoV Urbani [2]: 0.8
- Binding of serum 1a to looped/cyclic peptides of protein X4 of SARS-CoV Urbani [2]: 0.6
- Binding of serum 1b to linear peptides of protein X4 of SARS-CoV Urbani [2]: 0.8
- Binding of serum 1b to looped/cyclic peptides of protein X4 of SARS-CoV Urbani [2]: 0.3
- Binding of serum 2 to linear peptides of protein X4 of SARS-CoV Urbani [2]: 0.5
- Binding of serum 2 to looped/cyclic peptides of protein X4 of SARS-CoV Urbani [2]: 0.6
- Binding of serum 6 to linear peptides of protein X4 of SARS-CoV Urbani [2]: 0.6
- Binding of serum 6 to looped/cyclic peptides of protein X4 of SARS-CoV Urbani [2]: 0.5
- Binding of serum 37 to linear peptides of protein X4 of SARS-CoV Urbani [2]: 0.8
- Binding of serum 37 to looped/cyclic peptides of protein X4 of SARS-CoV Urbani [2]: 0.5
- Binding of serum 62 to linear peptides of protein X4 of SARS-CoV Urbani [2]: 0.8
- Binding of serum 62 to looped/cyclic peptides of protein X4 of SARS-CoV Urbani [2]: 0.6
- Binding of serum London to linear peptides of protein X4 of SARS-CoV Urbani [2]: 0.8
- Binding of serum London to looped/cyclic peptides of protein X4 of SARS-CoV Urbani [2]: 0.3
- Binding of serum SARS-green to linear peptides of protein X4 of SARS-CoV Urbani [2]: 0.8
- Binding of serum SARS-green to looped/cyclic peptides of protein X4 of SARS-CoV Urbani [2]: 0.4
- Binding of serum SARS-yellow to linear peptides of protein X4 of SARS-CoV Urbani [2]: 0.5
- Binding of serum SARS-yellow to looped/cyclic peptides of protein X4 of SARS-CoV Urbani [2]: 0.4
- Rabbit serum linear peptides [3]: 0.5
- Rabbit serum looped peptides [3]: 0.3
